Patent publication US11266649B2, “Pharmaceutical formulations” (Corvus Pharmaceuticals, Inc., priority 2018, dated 2022)

What was measured:
[1] = Particle size distribution by laser diffraction, before and after jet-mill micronization; format: physicochemical
Description: “Particle size distribution” or “PSD” or “size distribution” refers to the size of particles present in their relative proportions in a sample, as measured by laser diffraction spectroscopy. In aspects, the particle size distribution refers to the particle size distribution of all the drug particles in the composition. The particle size distribution of a sample is measured by laser diffraction spectroscopy. Laser diffraction spectrometers are commercially available as, e.g., MASTERSIZER® 3000 from Malvern Instruments Ltd, and HORIBA® LA-950 by Horiba Instruments, Inc., Irvine Calif. For laser diffraction spectroscopy, particle size distribution is generally described by D values, such as D90. In aspects, the laser diffraction spectroscopy can be analyzed by the Fraunhofer theory. In aspects, the laser diffraction spectroscopy can be analyzed by the Mie scattering theory. In aspects, the laser diffraction spectroscopy can be analyzed by a combination of the Fraunhofer theory and the Mie scattering theory.
Formulation (III) was micronized using a Sturtevant SDM jet mill with a 2 inch diameter loop. The process parameters were: inlet air pressure 120 psi; grind chamber 100 psi; nozzle air pressure 80 psi; manual fee rate.
Formulation (III) was micronized using a Sturtevant SDM jet mill with a 4 inch diameter loop. The process parameters were: inlet air pressure 120 psi; grind chamber 100 psi; nozzle air pressure 80 psi; manual fee rate.

[2] = Storage stability: Total Impurities by stability-indicating HPLC; format: physicochemical; details: API (Formula (III)) itself, reference
[3] = 1 pass micronization, jet mill 2 inch diameter loop
[4] = 1 pass micronization, jet mill 4 inch diameter loop
[5] = 2 pass micronization, jet mill 4 inch diameter loop
[6] = Before micronization, Table 1A, jet mill 2 inch diameter loop
[7] = Before micronization, Table 1B, jet mill 4 inch diameter loop

- D10 [1, 3]: 0.9 microns
- D50 [1, 3]: 3.3 microns
- D90 [1, 3]: 8.2 microns
- D10 [1, 4]: 1.1 microns
- D50 [1, 4]: 4.3 microns
- D90 [1, 4]: 20.2 microns
- D10 [1, 5]: 0.9 microns
- D50 [1, 5]: 3.1 microns
- D90 [1, 5]: 8.3 microns
- D10 [1, 6]: 2.3 microns
- D50 [1, 6]: 8.6 microns
- D90 [1, 6]: 31.1 microns
- D10 [1, 7]: 2.3 microns
- D50 [1, 7]: 8.6 microns
- D90 [1, 7]: 31.1 microns
- Total Impurities [2]: 0.80%
- Total Impurities ([2]; listed as API): 0.80%
SMILES: Cc1ccc(-c2nc(N)nc3c2nnn3Cc2cccc(COC3CCOC3)n2)o1 (centres unmarked) [Formula (III)]
